Measurements taken from paper PMC5391968, “Comparison of cell-based assays for the identification and evaluation of competitive CXCR4 inhibitors” (PLoS ONE, 2017).
Where two headings read alike, the source gives them in different places. Where a SMILES comes first, the peptide text is derived from it. Bridges are numbered along the chain shown (N, C = ends).

Assays:
CXCR4 [1] = biological target: T1, CXCR4 (Homo sapiens, UniProt P61073); test: CXCR4 internalization assay in SUP-T1 cells; assay type: cell-based; set-up: CXCR4 receptors endogenously expressed on SUP-T1 cells; endogenous in cells; host or cells: SUP-T1 (ATCC); conditions: for induction of CXCR4 internalization (agonistic effect): in absence of CXCL12, data not shown
T1 sequence (P61073 whole entry): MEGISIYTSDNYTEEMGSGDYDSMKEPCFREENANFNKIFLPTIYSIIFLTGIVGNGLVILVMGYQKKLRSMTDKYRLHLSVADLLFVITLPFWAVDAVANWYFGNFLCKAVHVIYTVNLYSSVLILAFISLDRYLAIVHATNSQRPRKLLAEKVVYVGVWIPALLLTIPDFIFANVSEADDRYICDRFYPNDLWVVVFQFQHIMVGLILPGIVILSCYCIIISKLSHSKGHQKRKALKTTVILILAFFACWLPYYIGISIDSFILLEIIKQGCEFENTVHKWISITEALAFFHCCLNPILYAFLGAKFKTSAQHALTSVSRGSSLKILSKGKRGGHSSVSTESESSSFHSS
Experimental: T-lymphoblastic SUP-T1 cells were washed twice in DPBS containing 2% FBS. Afterwards, cells were first incubated with the PE-labeled rat anti-human CXCR4 mAb (clone 1D9; 2 μg/ml in DPBS/2% FBS; BD Pharmingen) on ice for 45 minutes. […] SUP-T1 cells were subsequently washed once with ice cold DPBS and twice with ice cold assay buffer (see above) before being treated with test compound on ice for 15 minutes. […] Samples were immediately analyzed with the FACSCalibur flow cytometer (Becton Dickinson) whereby the measured fluorescence corresponds to the amount of […] CXCR4 receptors. Data were further analyzed with the FlowJo software.

[2] = system: CXCR4-positive Jurkat cells; test: cells; assay type: cell-based, human; conditions: for IC50: Jurkat cells, 6.25 nM CXCL12, two hours, mean ± SEM, read-out: IC50 Chemotaxis
Experimental: Jurkat cells were washed twice in assay buffer (see above), dispensed into a 96-well plate (5x10^5 cells per well) containing serial dilutions of compounds (in assay buffer) and incubated at RT in the dark for 10 minutes. […] Suspensions of 1.87x10^4 cells were transferred to the chemotaxis insert plate. […] After removal of the insert plate, migrated cells were centrifuged and resuspended in DPBS containing flow cytometry cell counting beads ([…] Fluorescent Particles; Gentaur, London, UK). Both migrated cells and particles were counted by flow cytometry (FACSCanto II; Becton Dickinson). Each compound concentration was tested in triplicate. Data were analyzed using the FlowJo software and the total number of migrated cells was calculated, according to the counted and total number of beads present in the sample.

HIV-1 NL4-3 (X4) [3] = test: microbe, parasite or virus in culture; assay type: cell-based
Experimental: The anti-HIV replication assays in MT-4 cells and PHA-stimulated PBMCs have been described previously. The HIV-1 T-tropic molecular clone NL4-3 (X4) was obtained from the National Institute of Allergy and Infectious Disease (NIAID) AIDS reagent program (Bethesda, MD, USA). Briefly, 5x10^4 MT-4 cells (in cell culture medium) were treated with different concentrations of compound at 37°C for 30 minutes. Afterwards, a 50% tissue culture infectious dose of the NL4-3 viral stock was added to the cell-compound mixtures. Four days post infection, the cytopathic effect was evaluated microscopically and cell viability was assessed with the MTS method, as described above.
In the antiviral assays, each condition was tested in duplicate.

HIV-1 NL4-3 (X4) [4] = test: microbe, parasite or virus in culture; assay type: cell-based; remark: listed apart in the source
Experimental: PHA-stimulated PBMCs at 5x10^5 cells per sample, pre-incubated with test compounds dissolved in cell culture medium containing IL-2 (2 ng/ml; […] After three days, fresh culture medium with IL-2 was added. Ten days post infection cell supernatant was collected for HIV-1 p24 core antigen enzyme-linked immunosorbent assay (ELISA; Perkin Elmer, Boston, MA, USA) according to the manufacturer’s protocol. In the antiviral assays, each condition was tested in duplicate.

CXCR4 [5] = biological target: T1, CXCR4; test: Calcium mobilization assay (FLIPR Tetra) in U87.CD4.CXCR4 cells; assay type: cell-based; conditions: U87.CD4.CXCR4 cells
Experimental: U87.CD4.CXCR4 cells were seeded at 2x10^4 cells per well in gelatin-coated black-walled 96-well plates [0.1% gelatin in DPBS, incubated at RT for two hours and washed once with DPBS] and incubated at 37°C and 5% CO2 overnight. […] Fluo-2 AM loaded cells were washed with assay buffer before being incubated in the FLIPR Tetra system at 37°C for five minutes. At the start of the kinetic measurement, compounds were added to the cell plate by the internal robotic system followed by an incubation period of 10 minutes during which changes in the intracellular calcium level were continuously measured by the FLIPR Tetra. […] Each condition was measured in triplicate and repeated several times as further indicated (see Results).

CXCR4 [6] = biological target: T1, CXCR4; test: CXCL12^AF647 binding assay on Jurkat cells; conditions: Jurkat cells, 2.9 nM CXCL12^AF647, mean ± SEM; read-out: IC50 CXCL12-CXCR4 binding interaction
Experimental: In brief, Jurkat cells were washed twice in assay buffer [Hank’s Balanced Salt Solution (HBSS; Thermo Fisher Scientific), 20 mM HEPES buffer (Thermo Fisher Scientific), 0.2% bovine serum albumin (Sigma-Aldrich), pH 7.4]. […] Afterwards, cells were washed twice in assay buffer and subsequently fixed in 1% paraformaldehyde in Dulbecco’s phosphate buffered saline (DPBS). Samples were analyzed with the FACSArray flow cytometer (Becton Dickinson, NJ, USA). Data were further analyzed with the FlowJo Software (Ashland, Oregon, USA).

CXCR7 = biological target: T2, CXCR7 (Homo sapiens, UniProt P25106); test: CXCL12 binding on CXCR7-transfected U87 cells (U87.CD4.CXCR7); conditions: data not shown
T2 construct: expressed in transfected cells; host or cells: U87.CD4 cells transfected with pTEJ-8 plasmid carrying human CXCR7 cDNA
T2 sequence (P25106 whole entry): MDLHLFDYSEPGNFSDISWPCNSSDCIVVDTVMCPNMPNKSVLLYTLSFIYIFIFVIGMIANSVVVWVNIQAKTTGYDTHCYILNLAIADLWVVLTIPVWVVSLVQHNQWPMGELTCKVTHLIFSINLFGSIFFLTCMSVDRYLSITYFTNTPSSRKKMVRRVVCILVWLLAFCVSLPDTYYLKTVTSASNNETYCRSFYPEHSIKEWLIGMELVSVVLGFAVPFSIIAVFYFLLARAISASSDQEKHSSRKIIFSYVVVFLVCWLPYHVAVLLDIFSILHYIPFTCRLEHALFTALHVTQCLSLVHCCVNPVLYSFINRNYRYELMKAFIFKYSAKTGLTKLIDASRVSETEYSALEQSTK

[7] = MT-4 cells, four days post infection, MTS, mean ± SEM, read-out: IC50 HIV-1 (X4) NL4-3 replication, MT-4 cells
[8] = PHA-stimulated PBMCs, ten days post infection, p24 Ag ELISA, mean ± SEM, read-out: IC50 HIV-1 (X4) NL4-3 replication, PHA-stimulated PBMCs

In the case of N=C(N)NCCC[C@H](NC(=O)[C@@H]1CSSC[C@H](NC(=O)[C@H](Cc2c[nH]c3ccccc23)NC(=O)[C@H](CCCNC(=N)N)NC(=O)[C@@H](N)CCCNC(=N)N)C(=O)N[C@@H](Cc2ccc(O)cc2)C(=O)N[C@@H](CCCNC(=N)N)C(=O)N[C@@H](CCCCN)C(=O)N[C@H]2CSSC[C@H](NC(=O)[C@H](Cc3ccc(O)cc3)NC(=O)CNC(=O)[C@H](CCCCN)NC(=O)[C@H](Cc3ccc(O)cc3)NC2=O)C(=O)N[C@@H](Cc2ccc(O)cc2)C(=O)N[C@@H](CCCNC(=N)N)C(=O)N[C@@H](CCCCN)C(=O)N1)C(N)=O [T22, (Tyr^5.12,Lys^7)-Polyphemusin II] (H-RRWCYRKCYKGYCYRKCR-NH2; disulfide 4-17, 8-13 (inferred); N-terminus and C-terminus assumed), the “induction of CXCR4 internalization (agonistic effect)” value (“induction of CXCR4 internalization” below) (CXCR4 [1]; 50 μM) is reported as “absence of an agonistic effect”.
CN(C)CCN(CCN(C)C)CCN(C)C [Me6TREN] was tested, and the IC50 [2] was > 100000 nM, the IC50 (HIV-1 NL4-3 (X4) [3]; [7]) was > 100000 nM and the IC50 (HIV-1 NL4-3 (X4) [4]; [8]) was > 100000 nM. The IC50 (CXCR4 [5]; 6.25 nM CXCL12, mean ± SEM, read-out: IC50 Calcium signaling (CXCL12-induced)) was > 100000 nM, the IC50 (CXCR4 [6]) was 51900 nM and the “induction of CXCR4 internalization” value (CXCR4 [1]; 100 μM) was “absence of an agonistic effect”. The IC50 (CXCR4 [1]; SUP-T1 cells, 6.25 nM CXCL12, 37°C 30 minutes, mean ± SEM) was > 100000 nM.
For N=C(N)NCCC[C@H](NC(=O)[C@@H]1CSSC[C@H](NC(=O)[C@H](Cc2ccc3ccccc3c2)NC(=O)[C@H](CCCNC(=N)N)NC(=O)[C@@H](N)CCCNC(=N)N)C(=O)N[C@@H](Cc2ccc(O)cc2)C(=O)N[C@@H](CCCNC(N)=O)C(=O)N[C@@H](CCCCN)C(=O)N[C@H](CCCNC(N)=O)C(=O)N2CCC[C@H]2C(=O)N[C@@H](Cc2ccc(O)cc2)C(=O)N[C@@H](CCCNC(=N)N)C(=O)N[C@@H](CCCNC(N)=O)C(=O)N1)C(N)=O [TC14012], the inhibition of migration ([2]; pretreated at concentrations as low as 200 nM) was “total inhibition of migration”, the IC50 (HIV-1 NL4-3 (X4) [3]; NL4-3 (X4)) was 7.2 ± 2.3 nM and the IC50 (HIV-1 NL4-3 (X4) [4]; NL4-3 (X4)) was 9.3 ± 4 nM. For the same compound, the “induction of CXCR4 internalization” value (CXCR4 [1]; 50 μM) was “absence of an agonistic effect” and the “inhibition of CXCL12 binding on CXCR7” value (CXCR7) was “reduced CXCL12 binding on CXCR7 in the lower micromolar range”.
In the case of CC1(C)CN2C(CSC(=NC3CCCCC3)NC3CCCCC3)=CSC2=N1 [IT1t], the IC50 [2] is reported as 79.1 ± 9.6 nM, the IC50 (HIV-1 NL4-3 (X4) [3]; [7]) is reported as 14.2 ± 5.3 nM and the IC50 (HIV-1 NL4-3 (X4) [4]; [8]) is reported as 19 ± 2.3 nM.
“CXCL12: Recombinant human CXCL12, endogenous chemokine ligand of CXCR4” was tested, and the EC90 (CXCR4 [5]; CXCL12 alone, read-out: EC90 increase of the calcium concentration) was 10.9 nM.
